Data set [1] deals with Plasmodium falciparum. The data set can be described thus: Antimalarial activity against sulfadoxine-pyrimethamine and mefloquine resistant Plasmodium falciparum clinical isolate CP286 assessed as inhibition of growth incubated for 72 hrs by SYBR green I based assay. The format is functional, organism-based.
Data set [2] deals with Plasmodium falciparum. The experiment in a line: microbe, parasite or virus in culture. As to conditions: 3D7, 72 h.
Description: Antimalarial activity against erythrocytic stage of Plasmodium falciparum 3D7 assessed as inhibition of growth incubated for 72 hrs by SYBR green I based assay
Data set [3] is described as follows: Cytotoxicity against human HepG2 cells assessed as inhibition of cell growth incubated for 72 hrs by CCK8 assay. The format is toxicity, cell-based. (In general: Formazan colour is commonly taken as a measure of viable cells.)
A short description of data set [4]: Cytotoxicity against HEK293T cells assessed as inhibition of cell growth incubated for 72 hrs by CCK8 assay. Format: toxicity, cell-based, HEK-293T. As to conditions: human.
Data set [5] can be described thus: Selectivity index, ratio of IC50 for human HepG2 cells to IC50 for erythrocytic stage of Plasmodium falciparum 3D7. Format: toxicity, cell-based. As to conditions: read-out: Ratio IC50.
Data set [6] can be described thus: Selectivity index, ratio of IC50 for HEK293T cells to IC50 for erythrocytic stage of Plasmodium falciparum 3D7. The format is toxicity, cell-based. The note with it: human, read-out: Ratio IC50.
Data set [7] deals with Plasmodium falciparum. The data set can be described thus: microbe, parasite or virus in culture. The note with it: Dd2, 72 h.
Description: Antimalarial activity against erythrocytic stage of chloroquine-resistant Plasmodium falciparum Dd2 assessed as inhibition of growth incubated for 72 hrs by SYBR green I based assay

pIC50: −log10 of the molar value.

For `CCc1nc(N)nc(N)c1-c1ccc(Cl)cc1` [PYRIMETHAMINE], the pIC50 – broadly, the IC50 on a negative log10 scale, so that one unit is a factor of ten – is less than 4.30 in data set [1] and 7.61 in data set [2].

Regarding `O=C(NO)c1cnc(N[C@H]2CC[C@@H](NCc3cc4ccccc4c4ccccc34)CC2)nc1`, the IC50 (as a rule, the concentration needed to halve the response being measured) at 72 h in data set [3] was found to be 1290 nM; in data set [4] it was 2010 nM. For the same compound, the selectivity ratio in data set [5] was 120; in data set [6], 187. In addition, the results for the pIC50 in data set [2] and in data set [7] were 7.97 and 7.91, respectively.

Turning to `O=C(NO)c1cnc(N[C@H]2CC[C@@H](NCc3ccc4ccccc4n3)CC2)nc1`, the concentration for half-maximal inhibition (IC50) at 72 h was 2430 nM in data set [3] and 2890 nM in data set [4]. Besides, the selectivity ratio was 233 in data set [5] and 278 in data set [6]. For the same compound, the pIC50 was 7.98 in data set [2] and 7.84 in data set [7].

Consider `O=C(NO)c1cnc(N[C@H]2CC[C@@H](NCc3cnc4ccccc4c3)CC2)nc1`, for which the results for the half-maximal inhibitory concentration (IC50) at 72 h in data set [3] and in data set [4] were 3340 nM and 4360 nM, respectively. For the same compound, the selectivity ratio in data set [5] was 123; in data set [6] it was 161. The pIC50 in data set [2] is 7.57; in data set [7], 7.42.

For `O=C(NO)c1cnc(N[C@H]2CC[C@@H](NCc3ccccn3)CC2)nc1`, the half-maximal inhibitory concentration (IC50) at 72 h in data set [3] and in data set [4] was greater than 10000 nM in each case. Besides, the selectivity ratio in data set [5] and in data set [6] was greater than 72 throughout. The negative logarithm of the IC50 (pIC50) in data set [2] is 6.86; in data set [7] it was 6.68.

For `O=C(NO)c1cnc(N[C@H]2CC[C@@H](NCc3ccc(-c4ccccc4)cc3)CC2)nc1`, the results for the half-maximal inhibitory concentration (IC50) at 72 h in data set [3] and in data set [4] were 2000 nM and 2180 nM, respectively. In addition, the selectivity ratio in data set [5] is 22; in data set [6], 24. Besides, the pIC50 in data set [2] is 7.04; in data set [7] it was 6.75.

With `O=C(NO)c1cnc(N[C@H]2CC[C@@H](NCc3ccc4ccccc4c3)CC2)nc1`, the 50% inhibitory concentration (IC50) at 72 h in data set [3] was 1130 nM; in data set [4] it was 1790 nM. The selectivity ratio in data set [5] was 73; in data set [6] it was 116. Also, the pIC50 in data set [2] and in data set [7] was 7.81 throughout.

`O=C(NO)c1cnc(N[C@H]2CC[C@@H](NCc3ccsc3)CC2)nc1`: the half-maximal inhibitory concentration (IC50) at 72 h in data set [3] and in data set [4] was greater than 10000 nM in each case. The selectivity ratio in data set [5] and in data set [6] was greater than 76 throughout. Also, the pIC50 in data set [2] was 6.88; in data set [7] it was 7.15.

`Cn1cc(CN[C@H]2CC[C@@H](Nc3ncc(C(=O)NO)cn3)CC2)c2ccc(Cl)cc21`: the IC50 at 72 h in data set [3] is 2500 nM; in data set [4], 3650 nM. The figures for the selectivity ratio in data set [5] and in data set [6] were 146 and 213, respectively. For the same compound, the results for the pIC50 in data set [2] and in data set [7] were 7.77 and 7.74, respectively.

Take `Cn1cc(CN[C@H]2CC[C@@H](Nc3ncc(C(=O)NO)cn3)CC2)c2ncccc21`: the IC50 at 72 h in data set [3] is greater than 10000 nM; in data set [4], 1250 nM. In addition, the selectivity ratio was greater than 214 in data set [5] and 27 in data set [6]. Also, the negative-log IC50 (pIC50) is 7.33 in data set [2] and 7.42 in data set [7].

In the case of `O=C(NO)c1cnc(N[C@H]2CC[C@@H](NCc3cccc4ccncc34)CC2)nc1`, the half-maximal inhibitory concentration (IC50) at 72 h in data set [3] and in data set [4] was 7080 nM each time. Further, the selectivity ratio in data set [5] and in data set [6] was 163 each time. In addition, the pIC50 is 7.36 in data set [2] and 7.21 in data set [7].

In the case of `O=C(NO)c1cnc(N[C@H]2CC[C@@H](NCc3coc4ccccc34)CC2)nc1`, the IC50 at 72 h came to 2580 nM in data set [3] and 3110 nM in data set [4]. Besides, the values for the selectivity ratio in data set [5] and in data set [6] were 51 and 61, respectively. Besides, the pIC50 was 7.29 in data set [2] and 7.45 in data set [7].

For the origin of these results see ChEMBL document CHEMBL6096636 (Bioorg Med Chem, 2024).
